Measured values published in US20150050235A1, “COMPOSITION FOR ATTRACTING MALE BLUEBERRY SPANWORM MOTH” (Her Majesty the Queen in Right of Canada, as represented by …, priority 2013, published 2015).

What was measured:
[1] = test system: male I. argillacearia moths; test: Field experiment no. 1: captures of male moths in baited Delta traps; type: in vivo, Itame argillacearia; details: 50 μg per constituent, rubber septa in Delta traps, n=10
Description: Field Experiments. Two field experiments were conducted during the moth flight season in 2012. Traps were deployed in vegetative lowbush blueberry fields located in Farmington (field experiment no. 1) and Debert (field experiment no. 2), Nova Scotia. Lowbush blueberries are typically produced on a biennial cycle. After harvest, plants are pruned and enter a year-long vegetative phase.
In both field experiments, traps were arranged in a randomized complete block design with ten replicates in the first experiment and six replicates in the second field experiment. Counts of male moths in traps were done twice per week. Trap data were log10 (x+1) transformed to satisfy assumptions of normality and equal variance and were analyzed by ANOVA using Proc Mixed (SAS, 2001). Where significant differences were detected, Fisher's least significant difference (LSD) was used for multiple mean comparisons among treatments.
The first experiment attempted to clarify: (1) whether enantiomers of the tested epoxide compound differed in the ability to attract male I. argillacearia moths; and (2) whether a mixture of the tested epoxide and triene compounds was more attractive to male moths than each constituent alone.
Rubber septa (Wheaton, N.J., USA) loaded with treatments were placed within Delta® traps (Contech, Delta, British Columbia) with sticky inserts to capture moths. Traps were placed approximately 20 m apart (Cantelo et al., 1982; Hillier, 2001; Hillier et al., 2002), and suspended from iron stakes just above the blueberry canopy. The experiment had seven treatments.
Virgin female moths were held in 25 ml plastic Solo™ cups (TRA Cash and Carry, Truro, NS, Canada) perforated with approximately 20 5-mm holes. Traps were in the field from 9-26 Jul. 2012 and were emptied or replaced twice per week during this period.

[2] = test system: Itame brunneata; details: without (Z,Z,Z)-3,6,9-17:H in the mixture; cited from earlier work

| SMILES | captures of male moths in traps (in words) [1] | capture of moths [2] |
| --- | --- | --- |
| CCCCCCC/C=C\C/C=C\C[C@H]1O[C@H]1CC [3S,4R-epoxy-(Z,Z)-6,9-17:H, Z,Z-(3S,4R)-3,4-epoxy-6,9-heptadecadiene] | lack of captured moths | – |
| CCCCCCC/C=C\C/C=C\C[C@@H]1O[C@@H]1CC (relative stereo) [3R,4S-epoxy-(Z,Z)-6,9-17:H, Z,Z-(3R,4S)-cis-3,4-epoxy-6,9-heptadecadiene] | a significant number of moths were found | captured |
| CC/C=C\C/C=C\C/C=C\CCCCCCC [(Z,Z,Z)-3,6,9-17:H, Z,Z,Z-3,6,9-heptadecatriene] | Very few moths were recovered | – |
